Here are results for one compound from paper PMC7468206, “Molecular Deceleration Regulates Toxicant Release to Prevent Cell Damage in Pseudomonas putida S16 (DSM 28022)” (mBio, 2020).

The target in this assay is T1, full-length (FL) wild-type (WT) NicA2 (Pseudomonas putida, UniProt F8G0P2).
T1 construct: full length, C-terminal 6xHis (pET28a), E. coli BL21(DE3); FAD-containing; the assays say only WT NicA2, full length inferred from cloning section
T1 sequence (F8G0P2 1-482): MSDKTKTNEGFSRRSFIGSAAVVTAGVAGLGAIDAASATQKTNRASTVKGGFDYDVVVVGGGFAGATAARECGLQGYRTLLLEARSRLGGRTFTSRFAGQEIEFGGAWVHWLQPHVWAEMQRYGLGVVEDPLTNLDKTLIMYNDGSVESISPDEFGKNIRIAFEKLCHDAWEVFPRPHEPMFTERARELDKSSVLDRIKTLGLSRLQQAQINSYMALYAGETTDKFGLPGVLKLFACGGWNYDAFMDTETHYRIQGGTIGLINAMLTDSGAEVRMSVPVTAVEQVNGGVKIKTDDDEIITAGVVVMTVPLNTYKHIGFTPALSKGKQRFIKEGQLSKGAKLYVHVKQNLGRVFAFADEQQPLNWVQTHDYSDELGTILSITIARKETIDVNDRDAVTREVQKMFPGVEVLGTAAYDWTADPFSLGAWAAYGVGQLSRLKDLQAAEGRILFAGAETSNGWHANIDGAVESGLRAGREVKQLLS
Nature of the assay: Ni-NTA removal of enzyme, GC of free versus total product. It counts as binding. The settings on record: 25 °C, 1.5 h, equimolar nicotine; product formed in situ; construct (full length or 21-482) not stated.

As to `CNCCCC(=O)c1cccnc1` [pseudooxynicotine], the “Ni-NTA removal of enzyme, GC of free versus total product” value is “only one-fourth of the PN produced in the reaction system was released to solution by NicA2”.
